# Assay results: patent US20110269763A1, “CRTH2 receptor ligands for medicinal uses” (7TM Pharma A/S, priority 2004, published 2011)
# Biological target: T1, human CRTH2 (Homo sapiens, UniProt Q9Y5Y4, V204A)
# T1 sequence (Q9Y5Y4 1-395 V204A): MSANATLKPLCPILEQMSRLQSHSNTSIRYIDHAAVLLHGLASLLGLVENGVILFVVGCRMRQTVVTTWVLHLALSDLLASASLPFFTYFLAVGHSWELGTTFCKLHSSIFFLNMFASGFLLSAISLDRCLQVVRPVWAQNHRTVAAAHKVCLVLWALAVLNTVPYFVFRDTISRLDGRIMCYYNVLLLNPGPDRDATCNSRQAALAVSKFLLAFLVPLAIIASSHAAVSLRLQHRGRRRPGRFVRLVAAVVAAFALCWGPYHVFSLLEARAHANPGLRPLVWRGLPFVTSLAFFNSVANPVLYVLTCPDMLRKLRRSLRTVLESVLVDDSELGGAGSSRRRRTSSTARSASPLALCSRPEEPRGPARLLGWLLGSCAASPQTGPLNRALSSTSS
# Assay: Functional antagonist BRET assay on HEK293 cells stably expressing human CRTH2-Rluc and GFP2-β-arr2
# Assay type: cell-based
# Set-up: expressed in transfected cells
# Settings: BRET, antagonist incubated 15 minutes prior to agonist; read-out: Antag. IC50
# Excerpt: (§1) Generation/origin of the cDNA Constructs. The coding sequence of the human CRTH2 receptor (genbank accession no NM_004778) was amplified by PCR from a human hippocampus cDNA library and inserted into the pcDNA3.1(+) expression vector (invitrogen) via 5′ HindIII and 3′ EcoRI. To generate a CRTH2-Renilla luciferase (CRTH2-Rluc) fusion protein, the CRTH2 coding sequence without a STOP codon and Rluc were amplified, fused in frame by PCR and subcloned into the pcDNA3.1(+)Zeo expression vector (invitrogen). Human β-arrestin2 (β-arr2) N-terminally tagged with GFP^2 (βarr2-GFP^2) and Renilla luciferase were purchased from BioSignal Packard Inc, (Montreal, Canada). The sequence identity of the construct was verified by restriction endonuclease digests and sequencing in both directions on an ABI Prism (Applied Biosystems, Foster City, Calif.).
# (§2) Cell Culture and Transfection. COS-7 cells were grown in Dulbecco's modified Eagle's medium (DMEM) 1885 supplemented with 10% fetal bovine serum, 100 units/ml penicillin, […] streptomycin, and kept at 37° C. in a 10% CO2 atmosphere. HEK293 cells were maintained in Minimum Essential medium (MEM) supplemented with 10% (v/v) heat inactivated fetal calf serum (HIFCS), 2 mM Glutamax™-I, 1% non essential amino acids (NEAA), 1% sodium pyruvate and 10 μg/ml gentamicin. For binding experiments, COS7 cells were transiently transfected with the CRTH2 receptor using a calcium phosphate-DNA coprecipitation method with the addition of chloroquine (as described by Holst et al., 2001↓). To perform the functional Bioluminescence Resonance Energy Transfer (BRET) assays, a HEK293 cell clone stably expressing βarr2-GFP^2 and CRTH2-Rluc was generated (CRTH2-HEK293 cells).
# BRET assay. Functional BRET assays were performed on HEK293 cells stably expressing human CRTH2-Rluc and GFP^2-β-arr2. Prior to their use in the BRET assay cells were detached and re-suspended in D-PBS with 1000 mg/L L-Glucose at a density of 2×10^6 cells/mL. DeepBlueC™ was diluted to 50 μM in D-PBS with 1000 mg/L L-Glucose (light sensitive). 100 μL of cell suspension was transferred to wells in a 96-well microplate (white OptiPlate) and placed in the Mithras LB 940 instrument (BERTHOLD TECHNOLOGIES, Bad Wildbad, Germany). 12 μL/well agonist was then injected by injector 1 and 10 μL/well DeepBlueC™ was injected simultaneously by injector 2. Five seconds after the injections the light output from the well was measured sequentially at 400 nm and 515 nm, and the BRET signal (mBRET ratio) was calculated by the ratio of the fluorescence emitted by GFP^2-β-arr2 (515 nm) over the light emitted by the receptor-Rluc (400 nm). Antagonists were added before placing the microplates into the Mithras LB 940 and allowed to incubate for 15 minutes prior to the addition of agonist and DeepBlueC™. Compounds were dissolved in DMSO and the final DMSO concentration was kept constant at 1% in the assay.
# (§3) Curve analysis was performed with the GraphPadPrism software 3.0 (Graphpad Prism Inc., San Diego, USA) and IC50 values were calculated as a measure of the antagonistic potencies.
row,Compound,IC50 [nM]
1,"O=C(O)COc1ccc(Br)cc1-c1coc(-c2ccc(Cl)cc2)n1 [D85, {4-Bromo-2-[2-(4-chlorophenyl)oxazol-4-yl]phenoxy}acetic acid]",> 5000
2,{4-Bromo-2-[1-(4-bromo-2-chlorophenyl)-1H-pyrazole-4-carbonyl]phenoxy}acetic acid [D67],< 500
3,"CC(C)c1ccc(OCC(=O)O)c(C(=O)c2cnn(-c3ccccc3Cl)c2)c1 [D31, 2-[1-(2-Chlorophenyl)-1H-pyrazole-4-carbonyl]-4-isopropylphenoxyacetic acid]",< 500
4,O=C(O)COc1ccccc1C=NNC(=O)COc1ccc(Cl)cc1Cl [D149],< 500
5,"Cc1cccc(Cl)c1-n1cc(C(=O)c2cc(Br)ccc2OCC(=O)O)cn1 [D76, {4-Bromo-2-[1-(2-chloro-6-methylphenyl)-1H-pyrazole-4-carbonyl]phenoxy}acetic acid]",< 500
6,"CCOc1ccccc1-n1cc(C(=O)c2cc(Br)ccc2OCC(=O)O)cn1 [D41, {4-Bromo-2-[1-(2-ethoxyphenyl)-1H-pyrazole-4-carbonyl]phenoxy}acetic acid]",< 500
7,"O=C(O)COc1ccc(Br)cc1-c1csc(Cc2ccc(Cl)cc2)n1 [D94, {4-Bromo-2-[2-(4-chlorobenzyl)thiazol-4-yl]phenoxy}acetic acid]",< 500
8,"O=C(O)COc1ccc(Br)cc1-c1noc(-c2cccc(Cl)c2)n1 [D136, {4-Bromo-2-[5-(3-chlorophenyl)-[1,2,4]oxadiazol-3-yl]phenoxy}acetic acid]",< 500
9,"Cc1cc(Cl)ccc1-n1cc(C(=O)c2cc(Br)ccc2OCC(=O)O)cn1 [D58, {4-Bromo-2-[1-(4-chloro-2-methylphenyl)-1H-pyrazole-4-carbonyl]phenoxy}acetic acid]",< 500

# Other lines, results leading:
row,IC50 [nM],Compound
1,< 500,"Cc1ccc(-n2cc(C(=O)c3cc(Br)ccc3OCC(=O)O)cn2)c(C)c1 [D54, {4-Bromo-2-[1-(2,4-dimethylphenyl)-1H-pyrazole-4-carbonyl]phenoxy}acetic acid]"
2,< 500,"CCc1cccc(CC)c1-n1cc(C(=O)c2cc(Br)ccc2OCC(=O)O)cn1 [D70, {4-Bromo-2-[1-(2,6-diethyl-phenyl)-1H-pyrazole-4-carbonyl]phenoxy}acetic acid]"
3,< 500,"O=C(O)COc1ccc(Br)cc1C(=O)c1cnn(-c2ccccc2)c1 [D1, 4-Bromo-2-(1-phenyl-1H-pyrazole-4-carbonyl)phenoxyacetic acid]"
4,< 500,"O=C(O)COc1ccc(Br)cc1C(=O)c1cnn(-c2ccc(Br)cc2Br)c1 [D33, 4-Bromo-2-[1-(2,4-dibromophenyl)-1H-pyrazole-4-carbonyl]phenoxyacetic acid]"

# Biological target: T1, human CRTH2
# Assay: Receptor binding assay: [3H]PGD2 competition binding on whole COS-7 cells transiently transfected with CRTH2 (also stable HEK293 cells)
# Set-up: expressed in transfected cells; host or cells: COS-7 (transient, calcium phosphate)
# Settings: competition with 0.1 nM [3H]PGD2, whole cells, 3 h at 4° C.
# Excerpt: as §1, §2
# Binding assay. 24 h after transfection COS-7 cells were seeded into 96 well plates at a density of 30.000 cells/well. Competition binding experiments on whole cells were then performed about 18-24 h later using 0.1 nM [^3H]PGD2 (NEN, 172 Ci/mmol) in a binding buffer consisting of HBSS (GIBCO) and 10 mM HEPES. Competing ligands were diluted in DMSO which was kept constant at 1% (v/v) of the final incubation volume. Total and nonspecific binding were determined in the absence and presence of 10 μM PGD2. Binding reactions were routinely conducted for 3 h at 4° C. and terminated by 2 washes (100 μl each) with ice cold binding buffer. Radioactivity was determined by liquid scintillation counting in a TOPCOUNTER (Packard) following over night incubation in Microscint 20. Stable HEK293 cells were seeded at a density of 30.000 cells/well 18-24 h prior to the binding assay which was performed essentially as described for COS7 cells above. Determinations were made in duplicates.
# as §3
row,Compound,IC50 [nM]
1,"O=C(O)COc1ccc(Br)cc1-c1coc(-c2ccc(Cl)cc2)n1 [D85, {4-Bromo-2-[2-(4-chlorophenyl)oxazol-4-yl]phenoxy}acetic acid]",< 500
2,{4-Bromo-2-[1-(4-bromo-2-chlorophenyl)-1H-pyrazole-4-carbonyl]phenoxy}acetic acid [D67],< 500
3,"CC(C)c1ccc(OCC(=O)O)c(C(=O)c2cnn(-c3ccccc3Cl)c2)c1 [D31, 2-[1-(2-Chlorophenyl)-1H-pyrazole-4-carbonyl]-4-isopropylphenoxyacetic acid]",< 500
4,O=C(O)COc1ccccc1C=NNC(=O)COc1ccc(Cl)cc1Cl [D149],< 500
5,"Cc1cccc(Cl)c1-n1cc(C(=O)c2cc(Br)ccc2OCC(=O)O)cn1 [D76, {4-Bromo-2-[1-(2-chloro-6-methylphenyl)-1H-pyrazole-4-carbonyl]phenoxy}acetic acid]",< 500
6,"CCOc1ccccc1-n1cc(C(=O)c2cc(Br)ccc2OCC(=O)O)cn1 [D41, {4-Bromo-2-[1-(2-ethoxyphenyl)-1H-pyrazole-4-carbonyl]phenoxy}acetic acid]",< 500
7,"O=C(O)COc1ccc(Br)cc1-c1csc(Cc2ccc(Cl)cc2)n1 [D94, {4-Bromo-2-[2-(4-chlorobenzyl)thiazol-4-yl]phenoxy}acetic acid]",< 500
8,"O=C(O)COc1ccc(Br)cc1-c1noc(-c2cccc(Cl)c2)n1 [D136, {4-Bromo-2-[5-(3-chlorophenyl)-[1,2,4]oxadiazol-3-yl]phenoxy}acetic acid]",< 500
9,"Cc1cc(Cl)ccc1-n1cc(C(=O)c2cc(Br)ccc2OCC(=O)O)cn1 [D58, {4-Bromo-2-[1-(4-chloro-2-methylphenyl)-1H-pyrazole-4-carbonyl]phenoxy}acetic acid]",< 500

# The next lines start with the values.
row,IC50 [nM],Compound
1,< 500,"Cc1ccc(-n2cc(C(=O)c3cc(Br)ccc3OCC(=O)O)cn2)c(C)c1 [D54, {4-Bromo-2-[1-(2,4-dimethylphenyl)-1H-pyrazole-4-carbonyl]phenoxy}acetic acid]"
2,< 500,"CCc1cccc(CC)c1-n1cc(C(=O)c2cc(Br)ccc2OCC(=O)O)cn1 [D70, {4-Bromo-2-[1-(2,6-diethyl-phenyl)-1H-pyrazole-4-carbonyl]phenoxy}acetic acid]"
3,< 500,"O=C(O)COc1ccc(Br)cc1C(=O)c1cnn(-c2ccccc2)c1 [D1, 4-Bromo-2-(1-phenyl-1H-pyrazole-4-carbonyl)phenoxyacetic acid]"
4,< 500,"O=C(O)COc1ccc(Br)cc1C(=O)c1cnn(-c2ccc(Br)cc2Br)c1 [D33, 4-Bromo-2-[1-(2,4-dibromophenyl)-1H-pyrazole-4-carbonyl]phenoxyacetic acid]"
